Measurements as given in patent US8357717B2, “Spiro group-containing amide compounds having bradykinin 1 receptor (B1R) activity” (Gruenenthal GmbH, priority 2009, dated 2013).

Columns and labels:
[1] = molecular target: T1, B1R receptor of the rat (rB1R) (Rattus norvegicus, UniProt P97583); assay: FLIPR Ca2+ functional study on bradykinin receptor 1, rB1R cells (CHO K1); assay type: cell-based; details: 10 μM test substance, CHO K1 cells with rat B1R, agonist Des-Arg9-bradykinin at EC80; for inhibition at 10 µM: read-out: B1R antagonism, rat [10 μM] % inhibition
T1 construct: expressed in transfected cells; host or cells: CHO K1 cells, stably transfected
T1 sequence (P97583 1-337): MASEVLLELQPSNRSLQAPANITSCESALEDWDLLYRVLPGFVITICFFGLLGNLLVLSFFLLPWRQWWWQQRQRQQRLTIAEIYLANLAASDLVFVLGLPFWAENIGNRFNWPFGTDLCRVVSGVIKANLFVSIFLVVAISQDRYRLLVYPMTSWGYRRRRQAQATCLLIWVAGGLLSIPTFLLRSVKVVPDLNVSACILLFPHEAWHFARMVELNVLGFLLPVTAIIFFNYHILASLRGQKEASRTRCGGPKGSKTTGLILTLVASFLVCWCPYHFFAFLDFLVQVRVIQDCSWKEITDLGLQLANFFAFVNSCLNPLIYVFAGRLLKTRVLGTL
Method: (§1) The agonistic or antagonistic activity of substances can be quantified on the bradykinin receptor 1 (B1R) of the species human and rat using ectopically expressing cell lines (CHO K1 cells) and with the aid of a Ca^2+-sensitive dye (Fluo-4) using a fluorescent imaging plate reader (FLIPR). The indication in % activation is based on the Ca^2+ signal after addition of Lys-Des-Arg^9-bradykinin (0.5 nM) or Des-Arg^9-bradykinin (100 nM). Antagonists lead to suppression of the Ca^2+ influx after the addition of the agonist. % Inhibition compared with the maximum achievable inhibition is indicated.
(§2) The agonistic or antagonistic activity of substances can be determined on the bradykinin receptor 1 (B1R) of the species human and rat using the following assay. According to this assay, the Ca^2+ influx through the channel is quantified with the aid of a Ca^2+-sensitive dye (Fluo-4 type, Molecular Probes Europe BV, Leiden, Netherlands) using a Fluorescent Imaging Plate Reader (FLIPR, Molecular Devices, Sunnyvale, USA).
(§3) Chinese hamster ovary cells (CHO K1 cells) which have been stably transfected with the human B1R gene (hB1R cells) or with the B1R gene of the rat (rB1R cells) are used. For functional studies, the cells are plated out on black 96-well plates having a clear base (BD Biosciences, Heidelberg, Germany or Greiner, Frickenhausen, Germany) in a density of 20,000-35,000 cells/well. The cells are left overnight at 37° C. and with 5% CO2 in culture medium (hB1R cells: Nutrient Mixture Ham's F12, Gibco Invitrogen GmbH, Karlsruhe, Germany or DMEM, Sigma-Aldrich, Taufkirchen, Germany; rB1R cells: D-MEM/F12, Gibco Invitrogen GmbH, Karlsruhe, Germany), with 10 vol. % FBS (fetal bovine serum, Gibco Invitrogen GmbH, Karlsruhe, Germany or PAN Biotech GmbH, Aidenbach, Germany). On the following day, the cells are loaded for 60 minutes at 37° C. with 2.13 μM Fluo-4 (Molecular Probes Europe BV, Leiden, Netherlands) in HBSS buffer (Hank's buffered saline solution, Gibco Invitrogen GmbH, Karlsruhe, Germany) […] (Sigma-Aldrich, Taufkirchen, Germany) and 10 mM HEPES (Sigma-Aldrich, Taufkirchen, Germany). The plates are then washed twice with HBSS buffer, and HBSS buffer additionally containing 0.1% BSA (bovine serum albumin; Sigma-Aldrich, Taufkirchen, Germany), 5.6 mM glucose and 0.05% gelatin (Merck KGaA, Darmstadt, Germany) is added to the plates. After incubation for a further 20 minutes at room temperature, the plates are inserted into the FLIPR for Ca^2+ measurement. Alternatively, washing is carried out with buffer A (15 mM HEPES, 80 mM NaCl, 5 mM KCl, 1.2 mM CaCl2, 0.7 mM MgSO4, 2 g/l glucose, 2.5 mM probenecid) followed by loading with buffer A with added 2.5 μM Fluo-4 and 0.025% Pluronic F127 (Sigma-Aldrich, Taufkirchen, Germany). The cells are then washed twice with buffer A and incubated for 30 minutes at room temperature with buffer A additionally containing 0.05% BSA and 0.05% gelatin and are then inserted into the FLIPR for Ca^2+ measurement. The Ca^2+-dependent fluorescence is measured before and after the addition of substances (λex=488 nm, λem=540 nm). Quantification is carried out by measuring the highest fluorescence intensity (FC, fluorescence counts) over time.
(§4) The FLIPR protocol consists of two substance additions. Test substances (10 μM) are first pipetted onto the cells and the Ca^2+ influx is compared with the control (hB1R: Lys-Des-Arg^9-bradykinin >=50 nM; rB1R: Des-Arg^9-bradykinin 10 μM). This gives the activation in %, based on the Ca^2+ signal after addition of Lys-Des-Arg^9-bradykinin (>=50 nM) or Des-Arg^9-bradykinin (10 μM). After 10-20 minutes' incubation, Lys-Des-Arg^9-bradykinin (hB1R) or Des-Arg^9-bradykinin (rB1R) is applied in the concentration of the EC80, and the influx of Ca^2+ is likewise determined. Antagonists lead to suppression of the Ca^2+ influx. The % inhibition compared with the maximum achievable inhibition is calculated. […]

[2] = molecular target: T2, human B1R receptor (hB1R) (Homo sapiens, UniProt P46663); assay: FLIPR Ca2+ functional study on bradykinin receptor 1, hB1R cells (CHO K1); assay type: cell-based; details: CHO K1 cells with human B1R, agonist Lys-Des-Arg9-bradykinin at EC80; for inhibition at 10 µM: CHO-K1, 10 μM test substance, read-out: B1R antagonism, human [10 μM] % inhibition
T2 construct: expressed in transfected cells; host or cells: CHO K1 cells, stably transfected
T2 sequence (P46663 1-353): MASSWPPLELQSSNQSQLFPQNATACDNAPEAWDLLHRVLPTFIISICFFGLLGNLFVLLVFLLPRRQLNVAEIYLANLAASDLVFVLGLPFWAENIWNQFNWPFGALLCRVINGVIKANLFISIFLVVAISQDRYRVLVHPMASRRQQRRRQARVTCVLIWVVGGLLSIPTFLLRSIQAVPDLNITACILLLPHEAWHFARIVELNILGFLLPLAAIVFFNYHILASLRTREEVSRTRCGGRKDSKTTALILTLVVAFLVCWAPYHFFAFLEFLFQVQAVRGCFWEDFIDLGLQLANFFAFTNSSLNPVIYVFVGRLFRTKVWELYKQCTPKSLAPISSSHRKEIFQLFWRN
Method: as §1, §2, §3, §4

Row | inhibition at 10 µM [1] [%] | inhibition at 10 µM [2] [%] | B1R antagonism, rat [10 μM] % inhibition [1] [%] | B1R antagonism, human [10 μM] % inhibition ([2]; 10 μM test substance, 10 µM) [%] | Structure (SMILES)
1 | 101 | 100 | – | – | O=C(Cc1ccc2c(c1)N(S(=O)(=O)c1ccccc1C(F)(F)F)CCC2)N1CCC2(CCN(c3ccncc3)CC2)C1 [Compound G-57, 1-(8-(Pyridin-4-yl)-2,8-diazaspiro[4.5]decan-2-yl)-2-(1-(2-(trifluoromethyl)phenylsulfonyl)-1,2,3,4-tetrahydroquinolin-7-yl)ethanone]
2 | – | – | 98 | 96 | COc1cc(C)c(S(=O)(=O)N2CCCc3ccc(CC(=O)N4CCC5(CC4)CCN(c4ccncc4)CC5)cc32)c(C)c1 [G_CC-055, 2-[1-[(4-Methoxy-2,6-dimethyl-phenyl)sulfonyl]-1,2,3,4-tetrahydro-quinolin-7-yl]-1-(3-pyridin-4-yl-3,9-diazaspiro[5.5]undecan-9-yl)-ethanone]
3 | 91 | 98 | – | – | O=C(c1ccc2c(c1)CN(C(=O)c1cc3c(s1)CCC3)CC2)N1CCC2(CC1)CCN(c1ccncc1)CC2 [Compound G-60, (5,6-Dihydro-4H-cyclopenta[b]thiophen-2-yl)(7-(9-(pyridin-4-yl)-3,9-diazaspiro[5.5]undecane-3-carbonyl)-3,4-dihydroisoquinolin-2(1H)-yl)methanone]
4 | 91 | 100 | – | – | Cc1ccc(C(=O)N2CCc3ccc(C(=O)N4CCC5(CC4)CCN(c4ccncc4)CC5)cc3C2)s1 [Compound G-58, (5-Methylthiophen-2-yl)(7-(9-(pyridin-4-yl)-3,9-diazaspiro[5.5]undecane-3-carbonyl)-3,4-dihydroisoquinolin-2(1H)-yl)methanone]

Continued, compound first:

Row | Structure (SMILES) | inhibition at 10 µM [1] [%] | inhibition at 10 µM [2] [%] | B1R antagonism, rat [10 μM] % inhibition [1] [%] | B1R antagonism, human [10 μM] % inhibition ([2]; 10 μM test substance, 10 µM) [%]
5 | O=C(NCc1ccccc1Cl)N1CCc2ccc(C(=O)N3CCC4(CC3)CCN(c3ccncc3)CC4)cc2C1 [Compound G-45, N-(2-Chlorobenzyl)-7-(9-(pyridin-4-yl)-3,9-diazaspiro[5.5]undecane-3-carbonyl)-3,4-dihydroisoquinoline-2(1H)-carboxamide] | 97 | 97 | – | –
6 | Cc1cccc(Cl)c1S(=O)(=O)N1CCCc2ccc(CC(=O)N3CCC4(CC3)CCN(c3ccncc3)CC4)cc21 [Compound G-18, 2-(1-(2-Chloro-6-methylphenylsulfonyl)-1,2,3,4-tetrahydroquinolin-7-yl)-1-(9-(pyridin-4-yl)-3,9-diazaspiro[5.5]undecan-3-yl)ethanone] | 98 | 97 | – | –
7 | COc1cc(C)c(S(=O)(=O)N2CCc3sc(C(=O)N4CCC5(CC4)CCN(c4ccncc4)CC5)cc3C2)c(C)c1 [Compound G-14, (5-(4-Methoxy-2,6-dimethylphenylsulfonyl)-4,5,6,7-tetrahydrothieno[3,2-c]pyridin-2-yl)(9-(pyridin-4-yl)-3,9-diazaspiro[5.5]undecan-3-yl)methanone] | 97 | 97 | – | –
8 | COc1cc(C)c(S(=O)(=O)N2CCCc3ccc(CC(=O)N4CCC5(CC4)CC(c4ccncc4)=NO5)cc32)c(C)c1 [Compound G-33, 2-(1-(4-Methoxy-2,6-dimethylphenylsulfonyl)-1,2,3,4-tetrahydroquinolin-7-yl)-1-(3-(pyridin-4-yl)-1-oxa-2,8-diazaspiro[4.5]dec-2-en-8-yl)ethanone] | 73 | 65 | – | –
9 | COc1cc(C)c(S(=O)(=O)N2CCn3cc(C(=O)N4CCC5(CC4)CCN(c4ccncc4)CC5)nc3C2)c(C)c1 [Compound G-40, (7-(4-Methoxy-2,6-dimethylphenylsulfonyl)-5,6,7,8-tetrahydroimidazo[1,2-a]pyrazin-2-yl)(9-(pyridin-4-yl)-3,9-diazaspiro[5.5]undecan-3-yl)methanone] | 102 | 100 | – | –
10 | COc1cc(C)c(S(=O)(=O)N2CCc3ccc(CC(=O)N4CCC5(CC4)CCN(c4ccncc4)CC5)cc32)c(C)c1 [Compound G-20, 2-(1-(4-Methoxy-2,6-dimethylphenylsulfonyl)indolin-6-yl)-1-(9-(pyridin-4-yl)-3,9-diazaspiro[5.5]undecan-3-yl)ethanone] | 102 | 100 | – | –
